The source of these data is patent US9309211B2, “Arylalkene derivatives and use thereof as selective estrogen receptor modulators” (Centaurus BioPharma Co., Ltd., priority 2011, dated 2016).

One series deals with MCF-7 cells. The series can be described thus: In vitro growth inhibitory potency of anti-estrogen activity in MCF-7 cells. Format: cell-based, human. As to conditions: Homo sapiens, MCF7, 168 h; in the presence of E2, 7 days, Cell Titre Glo. How it is done:
In Vitro Growth Inhibitory Potency of Anti-Estrogen Activity in MCF-7 Cells:
The estrogen receptor α (ERα) high expression human breast cancer MCF-7 cells (#HTB-22, A.T.C.C.) were cultured in DMEM medium supplemented by 10% fetal bovine serum (Gibco®) and 10 μg/ml bovine insulin (Sigma®). The cells were maintained in 75 cm^2 cell culture flask (Corning®) filled with 15 ml medium, 95% air and 5% CO2. Cells were split twice a week in a single layer cell culture.
For experiments related to 17β-Estradiol (E2), cells at logarithm growing stage were pretreated for two days without E2, the phenol red DMEM medium was replaced by the phenol red free DMEM/F12 medium, and FBS was replaced by 10% charcoal stripped FBS to remove the steroid and greatly decrease the hormone levels. Cells were seeded in 96 well cell culture plates (Corning®) with 4×10^3/well density, cultured in E2 free DMEM/F12 medium at 37° C. for 24 hours, 95% air and 5% CO2. All the compounds were stocked in DMSO as 0.01 M, serial diluted by the culture medium and added to the cells in the presence of proper E2 concentration. The final concentrations of compounds and DMSO were 3×10^−10˜1×10^−5 M and 0.1%. Cells were incubated at 37° C. for 7 days, medium containing E2 and compounds were changed every two days to maintain the chemical activity.
7 Days later, the viable cell numbers were calculated by the ATP amount from the luciferase quantity measurement (Cell Titre Glo® luciferase kit, Promega®). This method can be used to evaluate the stimulating estrogenicity of estrogen dependent cell growth under the condition of E2 free. The estrogenicity was tested by percentage compared to the maximum growth stimulation (100%) by E2. In this study, the percentage antagonist effects were evaluated by compared to the complete inhibition (100%) at the dose of 1×10^−5 M. The inhibition curves were generated by the reading numbers with the program Prism® 5, IC50 values were calculated.
With `CC/C(=C(\c1ccc(O)cc1)c1ccc(OCCNC)nc1)c1ccccc1`, the IC50 was less than 100 nM. In the case of `CC/C(=C(/c1ccc(O)cc1)c1ccc(OCCNC)nc1)c1ccccc1`, the IC50 was less than 100 nM.

As for `CC/C(=C(\c1ccc(O)cc1)c1ccc(OCCN(C)C)nc1)c1ccccc1`, the IC50 was less than 100 nM. Still for that read-out and setting: with `CC/C(=C(\c1ccc(O)cc1)c1ccc(OC2CCNC2)nc1)c1ccccc1` (centres unmarked) the figure was less than 100 nM.

For `CCC(=C(c1ccc(O)cc1)c1ccc(CCCN2CCCC2)nc1)c1ccccc1`, the IC50 was less than 100 nM.

Regarding `CCC(=C(c1ccc(O)cc1)c1ccc(CCCN2CCCC2)cc1)c1ccccc1`, the IC50 is less than 100 nM. Same read-out and setting: to `CCC(=C(c1ccc(O)cc1)c1ccc(CCCNC)nc1)c1ccccc1` belongs less than 100 nM; to `CCC(=C(c1ccc(O)cc1)c1ccc(CCCNC)cc1)c1ccccc1`, less than 100 nM. For `CCC(=C(c1ccc(O)cc1)c1ccc(C#CCN2CCCC2)c(F)c1)c1ccccc1`, the IC50 is less than 100 nM. The same measure, in the same setting: to `CC/C(=C(\c1ccc(O)cc1)c1ccc(OCCNC)cc1)C1CCC(=O)CC1` belongs less than 100 nM; to `CCC(=C(c1ccc(O)cc1)c1ccc(OCCNC)c(Br)c1)c1ccccc1`, less than 100 nM. Same read-out and setting: to `CC/C(=C(/c1ccc(O)cc1)c1ccc(N(C)CCNC)nc1)c1ccccc1` belongs less than 100 nM; to `CCC(=C(c1ccc(O)cc1)c1ccc(O[C@@H]2CCNC2)cc1)c1ccccc1`, less than 100 nM. On the same count and under the same terms, to `CCC(=C(c1ccc(O)cc1)c1ccn(CCCN(C)C)c(=O)c1)c1ccccc1` belongs less than 500 nM; to `CCC(=C(c1ccc(O)cc1)c1ccc(OCCNC)c(F)c1)c1ccccc1`, less than 100 nM.

`CC/C(=C(/c1ccc(O)cc1)c1ccc(OCCNC)cc1)c1ccc(O)c(F)c1`: the IC50 was less than 500 nM.

For `CCC(=C(c1ccc(O)cc1)c1ccc(OCCNC)cc1)c1ccc2c(c1)CCO2`, the IC50 was less than 100 nM.

As to `CCC(=C(c1ccc(O)cc1)c1ccc(OCCNC)cc1)c1ccc2nsnc2c1`, the IC50 was less than 100 nM.

With `CC/C(=C(/c1ccc(O)cc1)c1ccc(OCCNC)cc1)c1ccc2[nH]ncc2c1`, the IC50 was less than 100 nM. For the molecule `CCC(=C(c1ccc(O)cc1)c1ccc(OCCNC)cc1)c1ccc2occc2c1`, the IC50 was less than 100 nM. On to `CC/C(=C(\c1ccc(OC)cc1)c1ccc(OCCNC)cc1)c1ccc2oc(Cl)cc2c1`, for which the IC50 was less than 500 nM. Same read-out and setting: to `CCC(=C(c1ccc(O)cc1)c1ccc(OCCN2CCCC2)cc1)c1ccc2oc(Cl)cc2c1` belongs less than 100 nM; to `CCC(=C(c1ccc(O)cc1)c1ccc(OCCN2CCOCC2)cc1)c1ccc2oc(Cl)cc2c1`, less than 100 nM.

With `CCC(=C(c1ccc(O)cc1)c1ccc(OCCN(CC)CC)cc1)c1ccc2oc(Cl)cc2c1`, the IC50 is less than 100 nM.

For `CCC(=C(c1ccc(O)cc1)c1ccc(OCCN(C)C)cc1)c1ccc2oc(Cl)cc2c1`, the IC50 was less than 100 nM.

In the case of `CCC(=C(c1ccc(O)cc1)c1ccc(OCCN2CCNCC2)cc1)c1ccc2oc(Cl)cc2c1`, the IC50 is less than 100 nM.

In the case of `CCC(=C(c1ccc(O)cc1)c1ccc(SCCNC)nc1)c1ccc2oc(Cl)cc2c1`, the IC50 was less than 100 nM.

`CCC(=C(c1ccc(O)cc1)c1ccc(CCCN2CCCC2)nc1)c1ccc2oc(Cl)cc2c1`: the IC50 is less than 100 nM. On to `CCC(=C(c1ccc(O)cc1)c1ccc(OCCN(C)C)cn1)c1ccccc1`, for which the IC50 is less than 500 nM. `CCC(=C(c1ccc(O)cc1)c1ccc(CCCN(C)C)nc1)c1ccccc1`: the IC50 was less than 100 nM. With `CCC(=C(c1ccc(O)cc1)c1ccc(OCC2CCCN2C)cc1)c1ccccc1` (centres unmarked), the IC50 was less than 100 nM. As to `CC/C(=C(\c1ccc(O)cc1)c1ccc(OCCN2CCCC2)nc1)c1ccccc1`, the IC50 was less than 100 nM. On to `CC/C(=C(\c1ccc(O)cc1)c1ccc(OCCN2CCN(C)CC2)nc1)c1ccccc1`, for which the IC50 was less than 100 nM.

With `CC/C(=C(\c1ccc(O)cc1)c1ccc(OCCN2CCCCC2)nc1)c1ccccc1`, the half-maximal inhibitory concentration (IC50) was less than 100 nM. Same read-out and setting: with `CCC(=C(c1ccc(O)cc1)c1ccc(OCCNC)cc1)c1ccsc1` the figure was less than 100 nM; with `CC/C(=C(/c1ccc(O)cc1)c1ccc(OCCNC)cc1)c1csc(Cl)c1`, less than 500 nM. The same measure, in the same setting: to `CCC(=C(c1ccc(O)cc1)c1ccc(OCCNC)cc1)C1CCC(O)CC1` (centres unmarked) belongs less than 500 nM; to `CC/C(=C(\c1ccc(O)cc1)c1ccc(SCCNC)nc1)c1ccccc1`, less than 100 nM; to `CCC(=C(c1ccc(O)cc1)c1ccc(OC[C@@H]2CCCN2)cc1)c1ccccc1`, less than 100 nM. On the same count and under the same terms, with `CCC(=C(c1ccc(O)cc1)c1ccc(OC2CCNC2)cc1)c1ccccc1` (centres unmarked) the figure was less than 100 nM.

Consider `CCC(=C(c1ccc(O)cc1)c1ccc(OCCNC)cc1)c1ccc(O)c(OC)c1`, for which the IC50 is less than 500 nM. For the molecule `CC/C(=C(\c1ccc(O)cc1)c1ccc(OCCNC)cc1)c1ccc(O)c(F)c1`, the IC50 was less than 500 nM. Same read-out and setting: to `CCC(=C(c1ccc(OCCNC)cc1)c1ccc(O)c(F)c1)c1ccccc1` belongs less than 100 nM. On to `CCC(=C(c1ccc(O)cc1)c1ccc(OCCNC)c(F)c1)c1ccc2c(c1)CCO2`, for which the IC50 was less than 100 nM.

`CC/C(=C(\c1ccc(O)cc1)c1ccc(OCCNC)cc1)c1ccc2[nH]ncc2c1`: the IC50 was less than 100 nM. Same read-out and setting: to `CNCCOc1ccc(C(=C(CCCl)c2ccc3c(c2)CCO3)c2ccc(O)cc2)cc1` belongs less than 100 nM. Turning to `CC/C(=C(/c1ccc(O)cc1)c1ccc(OCCNC)cc1)c1ccc2oc(Cl)cc2c1`, the IC50 was less than 100 nM. Turning to `CCC(=C(c1ccc(O)cc1)c1ccc(OCCNC)nc1)c1ccc2c(c1)CCO2`, the IC50 is less than 100 nM.

`CCC(=C(c1ccc(O)cc1)c1ccc(OCCN2CCCCC2)cc1)c1ccc2oc(Cl)cc2c1`: the IC50 is less than 100 nM. As for `CCC(=C(c1ccc(O)cc1)c1ccc(OCCN2CCN(C)CC2)cc1)c1ccc2oc(Cl)cc2c1`, the IC50 is less than 100 nM. On the same count and under the same terms, with `CCNCCOc1ccc(C(=C(CC)c2ccc3oc(Cl)cc3c2)c2ccc(O)cc2)cc1` the figure was less than 100 nM; with `CCC(=C(c1ccc(O)cc1)c1ccc(OCCN2CCCCCC2)cc1)c1ccc2oc(Cl)cc2c1`, less than 100 nM; with `CCC(=C(c1ccc(O)cc1)c1ccc(OCCNC)nc1)c1ccc2oc(Cl)cc2c1`, less than 100 nM. The same measure, in the same setting: to `CCC(=C(c1ccc(O)cc1)c1ccc(N(C)CCNC)nc1)c1ccc2oc(Cl)cc2c1` belongs less than 100 nM; to `CC/C(=C(\c1ccc(O)cc1)c1ccc(OCCN2CCOCC2)nc1)c1ccccc1` [drawing 318], less than 100 nM; to `CCC(=C(c1ccc(O)cc1)c1ccc(OCCNC)cc1)c1ccc2oc(Cl)cc2c1` [drawing 331], less than 100 nM.

Still in this series, the particulars now being: in the presence of E2, 7 days, Cell Titre Glo.
For `CCC(=C(c1ccc(O)cc1)c1ccc(OCCNC)cc1)c1ccc2oc(Cl)cc2c1` [drawing 303], the IC50 was less than 100 nM.

The next series concerns MCF-7. The series can be described thus: Anti-tumor (MCF-7) test in nude mice. Type of series: in vivo. The note with it: 10 mg/kg PO, QD. How it is done: (§1) As shown in FIGURE and the table below, 21 days after the nude mouse was administered with Tamoxifen (20 mg/kg), the weight dropped by 20%, and a higher dose of 30 mg/kg of an exemplary compound of the present application, shown below as CT-946-01, led to a weight gain of 7%.
Turning to `CC/C(=C(\c1ccc(O)cc1)c1ccc(OCCN2CCOCC2)nc1)c1ccccc1` [CT-946-01], the “TGI (%) 21 days” value came to 108%.

The same series, now with this note: 20 mg/kg PO, QD.
Turning to `CC/C(=C(\c1ccccc1)c1ccc(OCCN(C)C)cc1)c1ccccc1` [Tamoxifen, reference compound], the “TGI (%) 21 days” value turned out to be 22.4%.

Still in this series, the particulars now being: 30 mg/kg PO, QD.
For `CC/C(=C(\c1ccc(O)cc1)c1ccc(OCCN2CCOCC2)nc1)c1ccccc1` [CT-946-01], the “TGI (%) 21 days” value stood at 104%.

Tested on in the next series: not listed separately
Put plainly: Weight change of nude mice during anti-tumor (MCF-7) test (toxicity). Type of series: in vivo. The note with it: 10 mg/kg PO, QD; nude mice. The procedure: as §1
For the molecule `CC/C(=C(\c1ccc(O)cc1)c1ccc(OCCN2CCOCC2)nc1)c1ccccc1` [CT-946-01], the “BW (% of vehicle)” value is listed as 104 % of vehicle.

Staying with this series, now noted: 20 mg/kg PO, QD; nude mice.
For `CC/C(=C(\c1ccccc1)c1ccc(OCCN(C)C)cc1)c1ccccc1` [Tamoxifen, reference compound], the “BW (% of vehicle)” value is 80.0 % of vehicle.

Still in this series, the particulars now being: 20 mg/kg; 21 days after administration; nude mouse.
Molecule `CC/C(=C(\c1ccccc1)c1ccc(OCCN(C)C)cc1)c1ccccc1` [Tamoxifen, reference compound] came in with a weight dropped of 20%.

The same series, now with this note: 30 mg/kg PO, QD; nude mice.
`CC/C(=C(\c1ccc(O)cc1)c1ccc(OCCN2CCOCC2)nc1)c1ccccc1` [CT-946-01]: the “BW (% of vehicle)” value is listed as 107 % of vehicle.

Staying with this series, now noted: 30 mg/kg; 21 days after administration; nude mouse.
Molecule `CC/C(=C(\c1ccc(O)cc1)c1ccc(OCCN2CCOCC2)nc1)c1ccccc1` [CT-946-01] yielded a weight gain of 7%.

A word on the IC50: it is the point on the concentration scale where inhibition reaches its midpoint.
